Measurements published in BindingDB's records for PubMed 2968449 (Squibb Institute For Medical Research, 1988).
Several values for one entry are separate records, joined by “and”; a condition that tells them apart may be missing. Equal entries are not always repeated.

Each compound was assayed against T1, Thromboxane A2 receptor (Homo sapiens, UniProt P21731).
T1 sequence (P21731 whole entry): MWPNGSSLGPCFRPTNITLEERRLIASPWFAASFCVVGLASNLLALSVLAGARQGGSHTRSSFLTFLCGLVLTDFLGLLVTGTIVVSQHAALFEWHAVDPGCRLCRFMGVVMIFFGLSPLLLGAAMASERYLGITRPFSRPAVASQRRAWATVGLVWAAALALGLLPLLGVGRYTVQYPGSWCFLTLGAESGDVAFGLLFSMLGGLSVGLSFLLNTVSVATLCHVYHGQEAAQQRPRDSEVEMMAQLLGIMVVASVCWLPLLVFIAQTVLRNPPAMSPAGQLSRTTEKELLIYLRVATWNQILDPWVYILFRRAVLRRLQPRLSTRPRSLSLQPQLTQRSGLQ
For `CCCCC[C@H](O)/C=C/C1[C@@H](C/C=C\CCCC(=O)O)[C@H]2CO[C@@H]1C2` (some centres undefined) [U46619], the Ki was 0.0187 µM and 0.0036 µM. For `CCCCCC(O)C=CC1C2COC(C2)C1CC=CCCCC(=O)O` (centres undefined) [NSC_114865], the Ki was 0.0071 µM and 0.0044 µM. `CC(c1ccccc1)C(O)C=CC1C2CCC(O2)C1CC=CCCCC(=O)O` (centres undefined) [NSC_3036123] was tested, and the Ki was 0.0727 µM and 0.0318 µM. In the case of `CCCCCCC(=O)NCC(=O)NCC1C2CCC(O2)C1CC=CCCCC(=O)O` (centres undefined) [CAS_119571], the Ki is reported as 0.0496 µM and 0.0283 µM.
